Measurements reported in ChEMBL document CHEMBL1126614, “Substituted benzamides with conformationally restricted side chains. 5. Azabicyclo[x.y.z] derivatives as 5-HT4 receptor agonists and gastric motility stimulants” (1993).
≈ marks a conversion by molar mass, not a printed value.

What was measured:
[1] = molecular target: T1, Serotonin 3 (5-HT3) receptor (Rattus norvegicus) (UniProt P35563+Q9JJ16); experiment: Tested for 5-HT 3 receptor antagonist potency by ability to inhibit the reflex bradycardia, the Bezold-Jarisch reflex in the rat; type: functional
Canis familiaris = organism: Canis familiaris; experiment: Tested against rhythmic contractile activity in a Heidenhain pouch dog preparation; type: functional, Canis lupus familiaris
[2] = molecular target: 5-hydroxytryptamine receptor 4 (Cavia porcellus) (UniProt O70528); experiment: Relative ability to increase cholinergically mediated contractions in isolated ileum of guinea pig; type: functional, tissue-based
Chain of 5-hydroxytryptamine receptor 4 (Cavia porcellus) (O70528 whole entry): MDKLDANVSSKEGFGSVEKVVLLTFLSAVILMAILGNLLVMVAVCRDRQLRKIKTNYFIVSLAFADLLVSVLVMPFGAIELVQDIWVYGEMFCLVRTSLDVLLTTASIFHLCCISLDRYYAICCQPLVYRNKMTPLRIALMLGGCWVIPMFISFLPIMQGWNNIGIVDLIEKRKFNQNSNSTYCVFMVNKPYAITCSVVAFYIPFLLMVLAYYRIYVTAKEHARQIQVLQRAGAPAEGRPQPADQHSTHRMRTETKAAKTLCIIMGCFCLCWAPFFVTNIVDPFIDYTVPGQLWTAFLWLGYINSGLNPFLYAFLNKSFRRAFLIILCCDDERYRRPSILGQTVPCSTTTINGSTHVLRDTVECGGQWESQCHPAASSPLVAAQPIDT

[3] = molecular target: 5-hydroxytryptamine receptor 4 (Rattus norvegicus) (UniProt Q62758); experiment: Stimulatory activity of intragastric pressure was tested in the rat; type: functional
Chain of 5-hydroxytryptamine receptor 4 (Rattus norvegicus) (Q62758 whole entry): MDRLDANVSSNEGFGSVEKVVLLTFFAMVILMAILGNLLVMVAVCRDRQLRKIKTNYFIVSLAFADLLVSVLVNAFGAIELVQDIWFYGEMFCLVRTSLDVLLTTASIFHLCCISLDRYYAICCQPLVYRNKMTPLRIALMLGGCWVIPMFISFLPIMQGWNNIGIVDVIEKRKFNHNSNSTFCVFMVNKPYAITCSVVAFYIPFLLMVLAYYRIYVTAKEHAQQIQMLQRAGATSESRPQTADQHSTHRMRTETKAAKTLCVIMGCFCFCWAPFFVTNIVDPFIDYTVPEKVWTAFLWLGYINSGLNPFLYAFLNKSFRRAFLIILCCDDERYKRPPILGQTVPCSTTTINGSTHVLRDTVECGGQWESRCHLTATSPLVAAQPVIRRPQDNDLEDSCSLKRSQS

[4] = molecular target: T1, Serotonin 3 (5-HT3) receptor (Rattus norvegicus); experiment: Compound was tested for its 5-HT 3 receptor antagonist potency by their ability to inhibit the reflex bradycardia, the Bezold-Jarisch reflex in the rat; type: functional

ID50 [1] [mg/kg] | EC20 [2] [µg/mL] | ED50 [3] [mg/kg] | ID50 [4] [mg/kg] | SMILES | LAD (Canis familiaris) [mg/kg]
 |  |  | 0.086 | COc1cc(N)c(Cl)cc1C(=O)NC12CCC(CC1)NC2 | 0.01
 | 0.056 (≈ 0.159 µM) |  |  | COc1cc(N)c(Cl)cc1C(=O)NC1CCNC(C)C12CCC2C (configuration not stated) | 0.05
 | 0.15 (≈ 0.444 µM) |  |  | COc1cc(N)c(Cl)cc1C(=O)NC1CC(C)NCC12CCC2 (configuration not stated) | 0.25
 | 0.018 (≈ 0.0533 µM) |  |  | COc1cc(N)c(Cl)cc1C(=O)NC1CCNCC12CCC2C (configuration not stated) | 0.05
0.0042 | 0.022 (≈ 0.0679 µM) |  |  | COc1cc(N)c(Cl)cc1C(=O)N[C@H]1CCN2CCC[C@@H]1C2 [listing 2 of 2 here] | 
> 0.1 | 0.087 (≈ 0.269 µM) |  |  | COc1cc(N)c(Cl)cc1C(=O)N[C@H]1CCN2CCC[C@@H]1C2 (relative stereo) [listing 2 of 2 here] | 
0.0039 | 0.032 (≈ 0.0988 µM) |  |  | COc1cc(N)c(Cl)cc1C(=O)NC1CCN2CCCC1C2 (single isomer, unassigned; (-)) | 
0.032 |  | 0.1 |  | COc1cc(N)c(Cl)cc1C(=O)NC1CCN2CCOC1C2 (single isomer, unassigned; (-)) | 
0.0033 | 0.007 (≈ 0.0216 µM) | 0.1 |  | COc1cc(N)c(Cl)cc1C(=O)NC1CCN2CCCC1C2 (stereo in doubt) | 
0.019 |  | 0.1 |  | COc1cc(N)c(Cl)cc1C(=O)NC1CCN2CCOC1C2 (stereo in doubt) | 
0.03 | 0.0004 (≈ 0.00124 µM) | 0.1 |  | COc1cc(N)c(Cl)cc1C(=O)NC1CCN2CCCC1C2 (stereo in doubt; 5d) | 
0.003 | 0.017 (≈ 0.0549 µM) | 0.06 |  | COc1cc(N)c(Cl)cc1C(=O)NC1CN2CCCC1C2 (stereo in doubt; endo) [listing 2 of 2 here] | 
0.045 | 0.047 (≈ 0.152 µM) |  |  | COc1cc(N)c(Cl)cc1C(=O)NC1CN2CCCC1C2 (stereo in doubt; exo) [listing 2 of 2 here] | 

More lines, now with the values behind:

SMILES | ID50 [1] [mg/kg] | EC20 [2] [µg/mL] | ED50 [3] [mg/kg] | ID50 [4] [mg/kg] | LAD (Canis familiaris) [mg/kg]
COc1cc(N)c(Cl)cc1C(=O)NC1CC2CCCN(C2)C1 (configuration not stated) | 0.0055 | 0.002 (≈ 0.00618 µM) | > 1 |  | >0.1
COc1cc(N)c(Cl)cc1C(=O)NC1CCN2CCSC1C2 (configuration not stated) |  |  | 0.5 |  | 0.01
COc1cc(N)c(Cl)cc1C(=O)N[C@H]1CCN2CCC[C@@H]1C2 [listing 1 of 2 here] |  |  |  |  | 0.01
COc1cc(N)c(Cl)cc1C(=O)N[C@H]1CCN2CCC[C@@H]1C2 (relative stereo) [listing 1 of 2 here] |  |  |  |  | 0.05
COc1cc(N)c(Cl)cc1C(=O)NC1CCN2CCOC1C2 (single isomer, unassigned; (+)) [listing 1 of 2 here] |  |  |  |  | 0.01
COc1cc(N)c(Cl)cc1C(=O)NC1CCN2CCOC1C2 (single isomer, unassigned; (+)) [listing 2 of 2 here] | 0.018 |  | 0.1 |  | 
COc1cc(N)c(Cl)cc1C(=O)NC1CCN2CCCC1C2 (stereo in doubt) [RENZAPRIDE] |  |  |  |  | 0.01
COc1cc(N)c(Cl)cc1C(=O)NC1CCN2CCCC1C2 (stereo in doubt; 5d) [RENZAPRIDE] |  |  |  |  | 0.005
COc1cc(N)c(Cl)cc1C(=O)NC1CN2CCCC1C2 (stereo in doubt; endo) [listing 1 of 2 here] |  |  |  |  | 0.01
COc1cc(N)c(Cl)cc1C(=O)NC1C2CC3CCN(C2)CC1C3 (stereo in doubt; endo) [listing 1 of 2 here] |  |  |  |  | 0.01
COc1cc(N)c(Cl)cc1C(=O)NC1C2CC3CCN(C2)CC1C3 (stereo in doubt; endo) [listing 2 of 2 here] | 0.0034 |  |  |  | 
COc1cc(N)c(Cl)cc1C(=O)NC1CN2CCCC1C2 (stereo in doubt; exo) [listing 1 of 2 here] |  |  |  |  | 0.05
COc1cc(N)c(Cl)cc1C(=O)NC1C2CC3CCN(C2)CC1C3 (stereo in doubt; exo) [listing 1 of 2 here] |  |  |  |  | 0.05
COc1cc(N)c(Cl)cc1C(=O)NC1C2CC3CCN(C2)CC1C3 (stereo in doubt; exo) [listing 2 of 2 here] | 0.059 |  |  |  | 
CCN(CC)CCNC(=O)c1cc(Cl)c(N)cc1OC [METOCLOPRAMIDE] | 0.5 | 0.12 (≈ 0.4 µM) | 1 |  | 0.25
